Results reported in patent US12396996B2, “Compounds, pharmaceutical compositions, and methods of their use in reversing cancer chemoresistance” (priority 2019, dated 2025).

What follows are compounds tested on HMLE-SNAIL spheroids (assay: 3-D tumor spheroid assay (Sytox/DAPI staining)). Settings: Sytox staining.
Format: cell-based, human
Text: FIGS. 1F-1I show the results of a 3-D tumor spheroid assay formed by the chemotherapy-resistant breast cancer cell line, HMLE-SNAIL. […] Tumor spheroids are a model of real in vivo tumors, as they form a 3-D cell mass in which the hypoxic and often nutrient depleted microenvironment at the center of the tumor is enriched with mesenchymal, chemotherapy-resistant TIC cells. […] By staining spheroids with Sytox, which stains dead cells green, and DAPI, which stains the nuclei of all cells (living or dead), total fraction of dead cells is calculated. Also, the location of dead cells within the sphere is visualized with Sytox (green) staining. The results of FIGS. 1F-1I indicate that chaetocin a selective and potent killer of inner cells of the spheroids, enriched with mesenchymal, chemotherapy-resistant TIC cells, compared to other compounds tested. FIGS. 1J-1K show the results of a tumorsphere assay performed with TICs grown on serum-free, non-adherent culture conditions. […] The results of FIGS. 1J-1K indicate that chaetocin is effective in eliminating TICs in a dose dependent-manner.
To determine whether chaetocin affects TIC death in a tumor-like environment, 3-D tumor spheroid assays were performed in the presence or absence of chaetocin. Tumor spheroids are a model of a real tumor, as they form a 3-D cell mass similar to tumors in vivo. The local microenvironment of a spheroid recapitulates many of the in vivo properties of tumor. Importantly, the hypoxic and often nutrient depleted microenvironment at the center of the tumor is favorable for converting epithelial, non-TIC, chemotherapy-sensitive cancer cells into mesenchymal, TIC-rich, chemotherapy-resistant cells. […] Pharmacological agents were added and cell viability was calculated by staining cells with Sytox, which stains dead cells green, and DAPI, which stains the nuclei of all cells (living or dead). to provide the total cell number. Using this method, the total fraction of dead cells was calculated and compared between different drug conditions. More importantly, the location of dead cells within the sphere is visualized with Sytox (green) staining. FIGS. 1G-1I show fluorescence images of tumor spheroids under control conditions (no treatment; FIG. 1G), under treatment with various experimental chemotherapeutic agents (Y-27632, LY-450139, and IWP-L6 (Wnt); FIG. 1H), and with chaetocin treatment (FIG. 1I). […] This family of kinases are thought to be important for survival of TIC cells. IWP-L6 is an inhibitor of Wnt pathway—a pathway important for TIC cell survival and formation. LY-450139 is a NOTCH pathway inhibitor. NOTCH is also important for TIC cell viability and survival. […]
With O=C(CSc1nc2c(c(=O)n1-c1ccccc1)SCC2)Nc1ccc(-c2ccccc2)cn1 [IWP-L6] the “location of dead cells within spheroid” value was “mostly result in death of cells on the exterior of the spheroid”.
In the case of CC(C)[C@H](O)C(=O)N[C@@H](C)C(=O)N[C@@H]1C(=O)N(C)CCc2ccccc21 [LY-450139], the “location of dead cells within spheroid” value is reported as “mostly result in death of cells on the exterior of the spheroid”.
For C[C@@H](N)[C@H]1CC[C@H](C(=O)Nc2ccncc2)CC1 [Y-27632], the “location of dead cells within spheroid” value was “mostly result in death of cells on the exterior of the spheroid”.
